Experimental data as given in the NIST ThermoML archive (doi:10.1016/j.jct.2010.10.025).

Assay: xn = mol fraction of the nth substance listed
Conditions: 101 kPa, Liquid; for speed of sound: Sing-around technique in a fixed-path interferometer; for mass density: Vibrating tube method

CCCCCCCCCO [nonan-1-ol] + Cc1ccccc1O
Conditions | mass density, 293.15 K [kg/m3] | mass density, 313.15 K [kg/m3] | speed of sound, 293.15 K [m/s] | speed of sound, 313.15 K [m/s]
x2 = 0 | 827.704 | 813.877 | 1380.7 | 1314
x2 = 0.0747 | 838.281 | 824.298 | 1388 | 1320
x2 = 0.1411 | 848.105 | 833.982 | 1393.4 | 1325.4
x2 = 0.2087 | 858.578 | 844.312 | 1398.9 | 1330.9
x2 = 0.2614 | 867.121 | 852.733 | 1403.3 | 1335.5
x2 = 0.326 | 878.085 | 863.535 | 1408.9 | 1341.4
x2 = 0.4013 | 891.616 | 876.862 | 1416.1 | 1348.8
x2 = 0.4562 | 902.048 | 887.133 | 1422 | 1354.7
x2 = 0.5303 | 916.987 | 901.834 | 1430.5 | 1363.3
x2 = 0.5829 | 928.291 | 912.952 | 1437.3 | 1370
x2 = 0.645 | 942.416 | 926.834 | 1446.2 | 1378.7
x2 = 0.7171 | 960.1 | 944.211 | 1457.8 | 1389.8
x2 = 0.784 | 977.81 | 961.595 | 1470 | 1401.7
x2 = 0.8566 | 998.699 | 982.094 | 1485.3 | 1416.7
x2 = 0.9397 | 1024.88 | 1007.76 | 1505.2 | 1436.5

CCCCCCCCCO [nonan-1-ol] + Cc1cccc(O)c1
Conditions | mass density, 293.15 K [kg/m3] | mass density, 313.15 K [kg/m3] | speed of sound, 293.15 K [m/s] | speed of sound, 313.15 K [m/s]
x2 = 0 | 827.704 | 813.877 | 1380.7 | 1314
x2 = 0.0696 | 837.032 | 823.074 | 1386.7 | 1319.2
x2 = 0.1336 | 845.992 | 831.904 | 1390.8 | 1323.6
x2 = 0.2038 | 856.282 | 842.048 | 1395.6 | 1328.8
x2 = 0.2679 | 866.185 | 851.815 | 1400.4 | 1333.8
x2 = 0.3231 | 875.133 | 860.644 | 1404.9 | 1338.4
x2 = 0.3971 | 887.768 | 873.113 | 1411.3 | 1345
x2 = 0.4653 | 900.156 | 885.348 | 1417.5 | 1351.6
x2 = 0.5405 | 914.757 | 899.778 | 1425.3 | 1359.6
x2 = 0.6082 | 928.851 | 913.714 | 1432.9 | 1367.1
x2 = 0.6786 | 944.571 | 929.281 | 1441.8 | 1376.3
x2 = 0.7459 | 960.755 | 945.321 | 1451.1 | 1386.2
x2 = 0.8167 | 979.083 | 963.512 | 1461.2 | 1397.7
x2 = 0.8892 | 999.352 | 983.643 | 1474.3 | 1410.7
x2 = 0.9459 | 1016.5 | 1000.7 | 1485 | 1422.1

Cc1ccccc1O [2-methylphenol] + CCCCCCCCCO
x1 = 1
Conditions | mass density [kg/m3] | speed of sound [m/s]
293.15 K | 1045.69 | 1521.8
313.15 K | 1028.14 | 1453.3

COc1ccccc1 [anisole] + CCCCCCCCCO
x1 = 1
Conditions | mass density [kg/m3] | speed of sound [m/s]
293.15 K | 993.845 | 1427.3
313.15 K | 974.966 | 1346.7

CCCCCCCCCO [nonan-1-ol] + Cc1ccc(O)cc1
x2 = 0
Conditions | mass density [kg/m3] | speed of sound [m/s]
293.15 K | 827.704 | 1380.7
313.15 K | 813.877 | 1314

Cc1cccc(O)c1 [3-methylphenol] + CCCCCCCCCO
x1 = 1
Conditions | mass density [kg/m3] | speed of sound [m/s]
293.15 K | 1033.99 | 1496.8
313.15 K | 1018.06 | 1434.2

Cc1ccc(O)cc1 [4-methylphenol] + CCCCCCCCCO
Conditions | mass density, 293.15 K [kg/m3] | mass density, 313.15 K [kg/m3] | speed of sound, 293.15 K [m/s] | speed of sound, 313.15 K [m/s]
x1 = 0.0723 | 837.798 | 823.756 | 1387.3 | 1319.8
x1 = 0.1353 | 846.887 | 832.662 | 1392.7 | 1324.9
x1 = 0.2032 | 856.995 | 842.572 | 1398.2 | 1330.5
x1 = 0.2637 | 866.395 | 851.785 | 1403.2 | 1335.7
x1 = 0.3492 | 880.334 | 865.479 | 1410.3 | 1343
x1 = 0.4122 | 891.234 | 876.214 | 1415.5 | 1348.6
x1 = 0.4898 | 905.461 | 890.246 | 1422.7 | 1356.1
x1 = 0.5492 | 917.111 | 901.771 | 1428.7 | 1362.2
x1 = 0.6143 | 930.635 | 915.184 | 1436 | 1369.8
x1 = 0.6735 | 943.741 | 928.201 | 1443.4 | 1377.4
x1 = 0.7455 | 960.902 | 945.287 | 1453.2 | 1388.3
x1 = 0.8163 | 979.164 | 963.518 | 1464.5 | 1400
x1 = 0.8789 | 996.577 | 980.938 | 1476 | 1412.3
x1 = 0.9362 | 1013.65 | 998.054 | 1487.5 | 1424.4
x1 = 1 | 1033.99 | 1018.47 | 1502.2 | 1439.6

CCCCCCCCCO [nonan-1-ol] + COc1ccccc1
Conditions | mass density, 293.15 K [kg/m3] | mass density, 313.15 K [kg/m3] | speed of sound, 293.15 K [m/s] | speed of sound, 313.15 K [m/s]
x2 = 0 | 827.704 | 813.877 | 1380.7 | 1314
x2 = 0.0691 | 834.714 | 820.629 | 1379.8 | 1312
x2 = 0.1265 | 840.852 | 826.539 | 1379.1 | 1310.9
x2 = 0.2023 | 849.439 | 834.809 | 1378.5 | 1309.8
x2 = 0.2701 | 857.605 | 842.665 | 1378.4 | 1309
x2 = 0.335 | 865.942 | 850.682 | 1378.5 | 1308.5
x2 = 0.405 | 875.488 | 859.873 | 1379 | 1308.3
x2 = 0.4753 | 885.766 | 869.775 | 1380.2 | 1308.6
x2 = 0.5348 | 895.034 | 878.714 | 1381.6 | 1309.2
x2 = 0.6025 | 906.314 | 889.609 | 1384.2 | 1311.1
x2 = 0.6657 | 917.614 | 900.551 | 1387.5 | 1313.4
x2 = 0.7399 | 931.942 | 914.464 | 1392.7 | 1317.5
x2 = 0.8198 | 948.831 | 930.915 | 1400.4 | 1323.4
x2 = 0.8791 | 962.443 | 944.199 | 1407.4 | 1329
x2 = 0.9468 | 979.271 | 960.651 | 1417.5 | 1337.5
